Test results reported in patent publication US5672715A, “Herbicidal substituted 3-aryl-pyrazoles” (Monsanto Company, priority 1995, dated 1997).

Assays:
Format in all cases: in vivo
Wheat [1] = assay: pre-emergence herbicide test; conditions: Triticum aestivum, pre-emergence, 0.25 lb/A; read-out: % plant inhibition
Summary of the method: (§1)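 Seeds were sown on compacted topsoil in pans and covered with a topsoil layer carrying a known amount of active ingredient in acetone or water, applied before or after covering. Pans were bottom-watered on a greenhouse bench, and % inhibition was scored about 14 days after seeding and treatment.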

Cocklebur [2] = assay: pre-emergence herbicide test; conditions: Xanthium strumarium, pre-emergence, 0.25 lb/A; read-out: % plant inhibition
Summary of the method: as §1

Birdseye Speedwell [3] = assay: pre-emergence herbicide test; conditions: pre-emergence, 0.25 lb/A; read-out: % plant inhibition
Summary of the method: as §1

Seedling Johnsongrass [4] = assay: pre-emergence herbicide test; conditions: Sorghum halepense, pre-emergence, 0.25 lb/A; read-out: % plant inhibition
Summary of the method: as §1

Wild Oats [5] = assay: pre-emergence herbicide test; conditions: Avena fatua, pre-emergence, 0.25 lb/A; read-out: % plant inhibition
Summary of the method: as §1

Barnyardgrass [6] = assay: pre-emergence herbicide test; conditions: Echinochloa crus-galli, pre-emergence, 0.25 lb/A; read-out: % plant inhibition
Summary of the method: as §1

Velvetleaf [7] = assay: pre-emergence herbicide test; conditions: Abutilon theophrasti, pre-emergence, 0.25 lb/A; read-out: % plant inhibition
Summary of the method: as §1

Soybean [8] = assay: pre-emergence herbicide test; conditions: Glycine max, pre-emergence, 0.25 lb/A; read-out: % plant inhibition
Summary of the method: as §1

Green Foxtail [9] = assay: pre-emergence herbicide test; conditions: Setaria viridis, pre-emergence; 0.25 lb/A; read-out: % plant inhibition
Summary of the method: as §1

Downy Brome [10] = assay: pre-emergence herbicide test; conditions: Bromus tectorum, pre-emergence, 0.25 lb/A; read-out: % plant inhibition
Summary of the method: as §1

Bedstraw Catchweed [11] = assay: pre-emergence herbicide test; conditions: Galium aparine, pre-emergence, 0.25 lb/A; read-out: % plant inhibition
Summary of the method: as §1

Rape [12] = assay: pre-emergence herbicide test; conditions: pre-emergence, 0.25 lb/A; read-out: % plant inhibition
Summary of the method: as §1

Giant Foxtail [13] = assay: pre-emergence herbicide test; conditions: Setaria faberi, pre-emergence, 0.25 lb/A; read-out: % plant inhibition
Summary of the method: as §1

Morning Glory [14] = assay: pre-emergence herbicide test; conditions: Ipomoea, pre-emergence, 0.25 lb/A; read-out: % plant inhibition
Summary of the method: as §1

Blackgrass [15] = assay: pre-emergence herbicide test; conditions: Alopecurus myosuroides, pre-emergence, 0.25 lb/A; read-out: % plant inhibition
Summary of the method: as §1

Common Chickweed [16] = assay: pre-emergence herbicide test; conditions: pre-emergence, 0.25 lb/A; read-out: % plant inhibition
Summary of the method: as §1

Corn [17] = assay: pre-emergence herbicide test; conditions: Zea mays, pre-emergence, 0.25 lb/A; read-out: % plant inhibition
Summary of the method: as §1

Wheat [18] = assay: post-emergence herbicide test; conditions: Triticum aestivum, post-emergence, 0.25 lb/A; read-out: % plant inhibition
Summary of the method: (§2)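 Two- to three-week-old plants, greenhouse-grown in compacted topsoil, received candidate chemical by atomizer spray at 1870 L/Ha. Scored as percent inhibition.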

Cocklebur [19] = assay: post-emergence herbicide test; conditions: Xanthium strumarium, post-emergence, 0.25 lb/A; read-out: % plant inhibition
Summary of the method: as §2

Birdseye Speedwell [20] = assay: post-emergence herbicide test; conditions: post-emergence, 0.25 lb/A; read-out: % plant inhibition
Summary of the method: as §2

Seedling Johnsongrass [21] = assay: post-emergence herbicide test; conditions: Sorghum halepense, post-emergence, 0.25 lb/A; read-out: % plant inhibition
Summary of the method: as §2

Wild Oats [22] = assay: post-emergence herbicide test; conditions: Avena fatua, post-emergence, 0.25 lb/A; read-out: % plant inhibition
Summary of the method: as §2

Barnyardgrass [23] = assay: post-emergence herbicide test; conditions: Echinochloa crus-galli, post-emergence, 0.25 lb/A; read-out: % plant inhibition
Summary of the method: as §2

Velvetleaf [24] = assay: post-emergence herbicide test; conditions: Abutilon theophrasti, post-emergence, 0.25 lb/A; read-out: % plant inhibition
Summary of the method: as §2

Soybean [25] = assay: post-emergence herbicide test; conditions: Glycine max, post-emergence, 0.25 lb/A; read-out: % plant inhibition
Summary of the method: as §2

Green Foxtail [26] = assay: post-emergence herbicide test; conditions: Setaria viridis, post-emergence, 0.25 lb/A; read-out: % plant inhibition
Summary of the method: as §2

Downy Brome [27] = assay: post-emergence herbicide test; conditions: Bromus tectorum, post-emergence, 0.25 lb/A; read-out: % plant inhibition
Summary of the method: as §2

Bedstraw Catchweed [28] = assay: post-emergence herbicide test; conditions: Galium aparine, post-emergence, 0.25 lb/A; read-out: % plant inhibition
Summary of the method: as §2

Rape [29] = assay: post-emergence herbicide test; conditions: post-emergence, 0.25 lb/A; read-out: % plant inhibition
Summary of the method: as §2

Giant Foxtail [30] = assay: post-emergence herbicide test; conditions: Setaria faberi, post-emergence, 0.25 lb/A; read-out: % plant inhibition
Summary of the method: as §2

Morning Glory [31] = assay: post-emergence herbicide test; conditions: Ipomoea, post-emergence, 0.25 lb/A; read-out: % plant inhibition
Summary of the method: as §2

Blackgrass [32] = assay: post-emergence herbicide test; conditions: Alopecurus myosuroides, post-emergence, 0.25 lb/A; read-out: % plant inhibition
Summary of the method: as §2

Common Chickweed [33] = assay: post-emergence herbicide test; conditions: post-emergence, 0.25 lb/A; read-out: % plant inhibition
Summary of the method: as §2

Corn [34] = assay: post-emergence herbicide test; conditions: Zea mays, post-emergence, 0.25 lb/A; read-out: % plant inhibition
Summary of the method: as §2

| SMILES | inhibition at 280.212 g/ha (Wheat [1]) [%] | inhibition at 280.212 g/ha (Cocklebur [2]) [%] | inhibition at 280.212 g/ha (Birdseye Speedwell [3]) [%] | inhibition at 280.212 g/ha (Seedling Johnsongrass [4]) [%] | inhibition at 280.212 g/ha (Wild Oats [5]) [%] | inhibition at 280.212 g/ha (Barnyardgrass [6]) [%] | inhibition at 280.212 g/ha (Velvetleaf [7]) [%] | inhibition at 280.212 g/ha (Soybean [8]) [%] | inhibition at 280.212 g/ha (Green Foxtail [9]) [%] | inhibition at 280.212 g/ha (Downy Brome [10]) [%] | inhibition at 280.212 g/ha (Bedstraw Catchweed [11]) [%] | inhibition at 280.212 g/ha (Rape [12]) [%] | inhibition at 280.212 g/ha (Giant Foxtail [13]) [%] | inhibition at 280.212 g/ha (Morning Glory [14]) [%] | inhibition at 280.212 g/ha (Blackgrass [15]) [%] | inhibition at 280.212 g/ha (Common Chickweed [16]) [%] | inhibition at 280.212 g/ha (Corn [17]) [%] | inhibition at 280.212 g/ha (Wheat [18]) [%] | inhibition at 280.212 g/ha (Cocklebur [19]) [%] | inhibition at 280.212 g/ha (Birdseye Speedwell [20]) [%] | other results |
| --- | --- | --- | --- | --- | --- | --- | --- | --- | --- | --- | --- | --- | --- | --- | --- | --- | --- | --- | --- | --- | --- |
| Cc1c(-c2cc(C(=O)OCC(=O)c3ccccc3)c(Cl)cc2F)nn(C)c1C(F)(F)F [Compound 43] | 0 | 45 | 60 | 35 | 5 | 15 | 65 | 0 | 60 | 5 | 20 | 5 | 15 | 10 | 10 | 55 | 0 | 10 | 85 | 100 | inhibition at 280.212 g/ha (Seedling Johnsongrass [21]): 25%; inhibition at 280.212 g/ha (Wild Oats [22]): 15%; inhibition at 280.212 g/ha (Barnyardgrass [23]): 5%; inhibition at 280.212 g/ha (Velvetleaf [24]): 80%; inhibition at 280.212 g/ha (Soybean [25]): 15%; inhibition at 280.212 g/ha (Green Foxtail [26]): 20%; inhibition at 280.212 g/ha (Downy Brome [27]): 10%; inhibition at 280.212 g/ha (Bedstraw Catchweed [28]): 30%; inhibition at 280.212 g/ha (Rape [29]): 25%; inhibition at 280.212 g/ha (Giant Foxtail [30]): 0%; inhibition at 280.212 g/ha (Morning Glory [31]): 75%; inhibition at 280.212 g/ha (Blackgrass [32]): 10%; inhibition at 280.212 g/ha (Common Chickweed [33]): 65%; inhibition at 280.212 g/ha (Corn [34]): 7% |
| CCOC(=O)C=C(COC(=O)c1cc(-c2nn(C)c(C(F)(F)F)c2C)c(F)cc1Cl)OC [Compound 44] | 0 | 0 | 85 | 40 | 5 | 10 | 60 | 0 | 100 | 5 | 40 | 20 | 50 | 50 | 20 | 85 | 0 | 15 | 99 | 100 | inhibition at 280.212 g/ha (Seedling Johnsongrass [21]): 60%; inhibition at 280.212 g/ha (Wild Oats [22]): 25%; inhibition at 280.212 g/ha (Barnyardgrass [23]): 90%; inhibition at 280.212 g/ha (Velvetleaf [24]): 99%; inhibition at 280.212 g/ha (Soybean [25]): 10%; inhibition at 280.212 g/ha (Green Foxtail [26]): 90%; inhibition at 280.212 g/ha (Downy Brome [27]): 35%; inhibition at 280.212 g/ha (Bedstraw Catchweed [28]): 100%; inhibition at 280.212 g/ha (Rape [29]): 45%; inhibition at 280.212 g/ha (Giant Foxtail [30]): 65%; inhibition at 280.212 g/ha (Morning Glory [31]): 80%; inhibition at 280.212 g/ha (Blackgrass [32]): 25%; inhibition at 280.212 g/ha (Common Chickweed [33]): 95%; inhibition at 280.212 g/ha (Corn [34]): 15% |
| Cc1c(-c2cc(C(=O)OCC(C)C)c(Cl)cc2F)nn(C)c1C(F)(F)F [Compound 45] | 0 | 50 | 100 | 98 | 50 | 75 | 98 | 0 | 100 | 98 | 98 | 5 | 100 | 30 | 100 | 80 | 0 | 17 | 100 | 100 | inhibition at 280.212 g/ha (Seedling Johnsongrass [21]): 95%; inhibition at 280.212 g/ha (Wild Oats [22]): 80%; inhibition at 280.212 g/ha (Barnyardgrass [23]): 75%; inhibition at 280.212 g/ha (Velvetleaf [24]): 100%; inhibition at 280.212 g/ha (Soybean [25]): 35%; inhibition at 280.212 g/ha (Green Foxtail [26]): 100%; inhibition at 280.212 g/ha (Downy Brome [27]): 95%; inhibition at 280.212 g/ha (Bedstraw Catchweed [28]): 100%; inhibition at 280.212 g/ha (Rape [29]): 50%; inhibition at 280.212 g/ha (Giant Foxtail [30]): 80%; inhibition at 280.212 g/ha (Morning Glory [31]): 50%; inhibition at 280.212 g/ha (Blackgrass [32]): 98%; inhibition at 280.212 g/ha (Common Chickweed [33]): 100%; inhibition at 280.212 g/ha (Corn [34]): 55% |
| CCC(CC)COC(=O)c1cc(-c2nn(C)c(C(F)(F)F)c2C)c(F)cc1Cl [Compound 46] | 0 | 10 | 80 | 75 | 5 | 0 | 80 | 0 | 80 | 15 | 75 | 5 | 40 | 20 | 10 | 90 | 0 | 15 | 85 | 100 | inhibition at 280.212 g/ha (Seedling Johnsongrass [21]): 25%; inhibition at 280.212 g/ha (Wild Oats [22]): 20%; inhibition at 280.212 g/ha (Barnyardgrass [23]): 50%; inhibition at 280.212 g/ha (Velvetleaf [24]): 98%; inhibition at 280.212 g/ha (Soybean [25]): 15%; inhibition at 280.212 g/ha (Green Foxtail [26]): 70%; inhibition at 280.212 g/ha (Downy Brome [27]): 15%; inhibition at 280.212 g/ha (Bedstraw Catchweed [28]): 100%; inhibition at 280.212 g/ha (Rape [29]): 45%; inhibition at 280.212 g/ha (Giant Foxtail [30]): 0%; inhibition at 280.212 g/ha (Morning Glory [31]): 70%; inhibition at 280.212 g/ha (Blackgrass [32]): 20%; inhibition at 280.212 g/ha (Common Chickweed [33]): 95%; inhibition at 280.212 g/ha (Corn [34]): 15% |
| Cc1c(-c2cc(C(=O)OCC3CNCCO3)c(Cl)cc2F)nn(C)c1C(F)(F)F (centres unmarked) [Compound 47] | 0 | 0 | 70 | 50 | 5 | 75 | 50 | 0 | 100 | 20 | 95 | 5 | 75 | 70 | 25 | 70 | 0 | 15 | 100 | 95 | inhibition at 280.212 g/ha (Seedling Johnsongrass [21]): 50%; inhibition at 280.212 g/ha (Wild Oats [22]): 30%; inhibition at 280.212 g/ha (Barnyardgrass [23]): 5%; inhibition at 280.212 g/ha (Velvetleaf [24]): 100%; inhibition at 280.212 g/ha (Soybean [25]): 30%; inhibition at 280.212 g/ha (Green Foxtail [26]): 70%; inhibition at 280.212 g/ha (Downy Brome [27]): 20%; inhibition at 280.212 g/ha (Bedstraw Catchweed [28]): 90%; inhibition at 280.212 g/ha (Rape [29]): 65%; inhibition at 280.212 g/ha (Giant Foxtail [30]): 5%; inhibition at 280.212 g/ha (Morning Glory [31]): 70%; inhibition at 280.212 g/ha (Blackgrass [32]): 20%; inhibition at 280.212 g/ha (Common Chickweed [33]): 95%; inhibition at 280.212 g/ha (Corn [34]): 50% |
